Measurements published in paper PMC12655426 (Pharmaceutics, 2025).

Legend:
OAT4 = target: T1, OAT4 (Homo sapiens, UniProt Q9NSA0); test: OTA uptake in OAT4-overexpressing HEK293 cells (screen and kinetics)
T1 sequence (Q9NSA0 1-550): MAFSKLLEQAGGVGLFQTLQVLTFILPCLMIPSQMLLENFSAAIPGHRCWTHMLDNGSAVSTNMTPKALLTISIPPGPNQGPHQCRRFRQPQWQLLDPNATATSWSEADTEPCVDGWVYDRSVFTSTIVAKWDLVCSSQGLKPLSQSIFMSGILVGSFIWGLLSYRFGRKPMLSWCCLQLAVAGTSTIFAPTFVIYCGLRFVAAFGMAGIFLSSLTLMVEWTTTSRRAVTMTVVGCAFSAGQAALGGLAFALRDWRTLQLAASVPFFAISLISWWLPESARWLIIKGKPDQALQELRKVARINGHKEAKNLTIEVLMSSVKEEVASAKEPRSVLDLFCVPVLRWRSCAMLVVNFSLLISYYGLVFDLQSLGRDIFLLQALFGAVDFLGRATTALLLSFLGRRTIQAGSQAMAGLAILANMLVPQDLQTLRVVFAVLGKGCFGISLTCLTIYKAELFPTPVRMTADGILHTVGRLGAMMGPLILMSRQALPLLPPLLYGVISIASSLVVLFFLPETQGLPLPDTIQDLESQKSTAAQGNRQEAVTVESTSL
Protocol: The following experiments were conducted at the University of Washington. Mock HEK293 cells and transporter-overexpressing HEK293 cells (i.e., OAT1–4, OCT2, MATE1/2K, OCTN1, OATP1A2), mock CHO cells, and OCTN2-overexpressing CHO cells were plated in 96 well plates coated with 0.05 mg/mL of poly-D-lysine in 50 μL DPBS at a density of 800,000 cells/mL and grown until reaching over 90% of confluence. […] For uptake experiments in MATE1- and MATE2-K-expressing HEK293 cells, the pH of the incubation buffer was adjusted to 8.0 to facilitate substrate uptake. For uptake experiments in OATP1A2-expressing and OAT4-expressing HEK293 cells, the pH of the incubation buffer was adjusted to 6.5 to mimic pH of the urinary filtrate, as these are apical transporters. The incubation buffer was kept at pH 7.4 for all other transporters. […] Uptake was quenched by removing the substrates/inhibitors and washing the cells 3 times with 200 μL of ice-cold HBSS++. […] The precipitated protein was allowed to dry and subsequently solubilized overnight in 1M NaOH, neutralized with 1 M HCl the next day, and measured by BCA assay.
(§1) All cellular-based assays were conducted in technical triplicate across three independent experiments. […] This cutoff was defined a priori. […] Jnet was then treated as the initial uptake rate, and Km and Vmax values were obtained by fitting the Michaelis–Menten equation to the substrate-concentration data as described above. Intrinsic clearance (CLint) was then calculated by the formula, CLint=Vmax/Km using Vmax and Km values as calculated above. […] At steady-state, the mass balance for intracellular concentrations assuming symmetric passive permeabilities (Papical = Pbasal, taken as Papp from mock assays) and apical efflux gives: Ccell= Cbasal/1+ ke/Pa where Cbasal is the concentration in the basal chamber and ke is the first-order elimination with respect to BCRP. Because the asymmetric efflux ratio ERa is defined as: ERa=1+ ke/Pa

human BCRP = target: T2, human BCRP (Homo sapiens, UniProt Q9UNQ0); test: Bidirectional transport of OTA in BCRP-expressing MDCK-II cells; conditions: net B to A flux, 1.56 to 100 μM OTA
T2 sequence (Q9UNQ0 1-655): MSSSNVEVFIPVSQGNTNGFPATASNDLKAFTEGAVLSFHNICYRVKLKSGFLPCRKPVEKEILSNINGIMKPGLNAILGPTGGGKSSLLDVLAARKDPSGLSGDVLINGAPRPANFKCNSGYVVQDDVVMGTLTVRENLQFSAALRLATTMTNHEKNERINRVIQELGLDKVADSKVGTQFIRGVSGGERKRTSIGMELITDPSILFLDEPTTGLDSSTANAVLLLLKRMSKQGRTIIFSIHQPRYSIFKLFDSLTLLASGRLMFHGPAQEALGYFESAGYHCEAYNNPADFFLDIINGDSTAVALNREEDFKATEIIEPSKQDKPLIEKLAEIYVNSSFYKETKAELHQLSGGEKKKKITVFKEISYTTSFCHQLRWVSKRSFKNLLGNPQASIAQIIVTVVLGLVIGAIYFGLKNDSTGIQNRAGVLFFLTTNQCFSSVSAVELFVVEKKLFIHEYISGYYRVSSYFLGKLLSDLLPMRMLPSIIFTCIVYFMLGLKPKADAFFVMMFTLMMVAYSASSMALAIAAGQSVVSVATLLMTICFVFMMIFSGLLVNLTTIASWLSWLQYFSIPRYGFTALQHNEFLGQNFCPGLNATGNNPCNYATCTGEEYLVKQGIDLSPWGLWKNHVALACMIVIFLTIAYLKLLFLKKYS
Protocol: as §1

[1] = tested on: human serum albumin (HSA); conditions: no reference given; cited from earlier work
[2] = HEK293, 5 min, 37 °C, pH 6.5, mock-corrected

C[C@@H]1Cc2c(Cl)cc(C(=O)N[C@@H](Cc3ccccc3)C(=O)O)c(O)c2C(=O)O1 [OTA, Ochratoxin A]
Km (OAT4; [2]): 6.38 ± 1.45 µM
Vmax (OAT4; [2]): 96.9 ± 18.8 pmol/mg/min
microsomal CLint (OAT4; human, other cell line, pH 6.5): 15.3 ± 0.8 µL/min/mg
apparent CLint estimated by the slope of the linearly fitted line (human BCRP): 0.29 ± 0.03 µL/min/cm^2
bound to human serum albumin [1]: > 99%
